Experimental data: patent US20050054587A1, “Novel therapeutic indication of azithromycin for treatment of non-infective inflamatory diseases” (priority 2001, published 2005)

Tested on: glutathione peroxidase (GSHPx)
Assay: Glutathione peroxidase activity in PMN lysates (RANSEL kit)
Type: in vivo, human
Conditions: healthy volunteers, azithromycin 3×500 mg, baseline 5.3 ± 2.0
Experimental: A trial on healthy volunteers was conducted and the influence of azithromycin given in a dosage of 3×500 mg on selected inflammation-relevant parameters was followed up.
Each subject received two standard 250 mg capsules of azithromycin (Sumamed®, PLIVA Zagreb) on three consecutive days. Immediately before the treatment and 2 h and 30 min, 24 h and 28 days after the third and last dose of azithromycin blood was collected from the cubital vein into EDTA-containing tubes. Aliquots were taken for cell counting, smear preparation, polymorphonuclear cell and serum isolation.
Cellular glutathione peroxidase (GSHPx) is a tetrameric protein in which each of the four identical subunits contains one atom of selenium (Se) in the form of selenocysteine at the active site (Misso et al., J. Leukoc. Biol. (1998), 63: 124-130). GSHPx plays a role in H202 detoxification and converts lipid hydroperoxides to nontoxic alcohols (Akkus et al., Clin. Chim. Acta (1996), 244: 221-227); Urban et al., Biomed & Pharmacother. (1997), 51: 388-390). In this study, in healthy volunteers treated with azithromycin alterations in the PMN intracellular GSHPx activity were determined using the commercially available kit RANSEL (Randox Laboratories). GSHPx catalyses the oxidation of glutathione by cumene hydroperoxide. In the presence of glutathione reductase and NADPH the oxidised glutathione is immediately converted to the reduced form with a concomitant oxidation of NADPH to NADP^+. The decrease in absorbance at 340 nm is measured.

CC[C@H]1OC(=O)[C@H](C)[C@@H](O[C@H]2C[C@@](C)(OC)[C@@H](O)[C@H](C)O2)[C@H](C)[C@@H](O[C@@H]2O[C@H](C)C[C@H](N(C)C)[C@H]2O)[C@](C)(O)C[C@@H](C)CN(C)[C@H](C)[C@@H](O)[C@]1(C)O [azithromycin, 9-deoxo-9-dihydro-9a-methyl-9a-aza-9a-homoerythromycin A]
GLUTATHION PEROXIDASE (PMN) (2 h and 30 min after last dose): 5.3 ± 2.9 mU/10^6PMN | GLUTATHION PEROXIDASE (PMN) (24 hours after last dose): 1.6 ± 1.3 mU/10^6PMN | GLUTATHION PEROXIDASE (PMN) (28 days after last dose): 8.0 ± 5.2 mU/10^6PMN
